Results as given in PubChem BioAssay AID330 (DTP/NCI, 2004).
Several values for one entry are separate records, joined by “and”; a condition that tells them apart may be missing. Equal entries are not always repeated. Toxic doses and inconclusive results are not listed.

Tested on: P388 leukemia ip, CD2F1 mice, survival T/C
Experiment: NCI In Vivo Anticancer Drug Screen. Data for tumor model P388 Leukemia (intraperitoneal) in CD2F1 (CDF1) mice
Conditions: endpoint: median survival time, higher = longer survival
In short: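 Mice carrying the transplanted tumor received test compound or vehicle. Survival was recorded in each group, and the value is the treated-group measurement divided by that of the vehicle-treated control group.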

[1] = dose: 100.0 mg/kg/injection, schedule: Q01DX009 (ip), vehicle: saline with Tween-80
[2] = dose: 100.0 mg/kg/injection, schedule: Q04DX003 (ip), vehicle: saline with Tween-80
[3] = dose: 200.0 mg/kg/injection, schedule: Q04DX003 (ip), vehicle: saline with Tween-80
[4] = dose: 400.0 mg/kg/injection, schedule: Q04DX003 (ip), vehicle: saline with Tween-80
[5] = dose: 50.0 mg/kg/injection, schedule: Q01DX009 (ip), vehicle: saline with Tween-80
[6] = dose: 200.0 mg/kg/injection, schedule: Q01DX009 (ip), vehicle: saline with Tween-80

## O=C(O)C(Nc1ccccn1)(c1ccccc1)c1ccccc1
dose: 60.0 mg/kg/injection, schedule: Q01DX005 (ip), vehicle: Klucel (hydroxypropylcellulose) (HPC)
  T/C: 102 % of control
dose: 120.0 mg/kg/injection, schedule: Q01DX005 (ip), vehicle: Klucel (hydroxypropylcellulose) (HPC)
  T/C: 102 % of control
dose: 240.0 mg/kg/injection, schedule: Q01DX005 (ip), vehicle: Klucel (hydroxypropylcellulose) (HPC)
  T/C: 98 % of control

## Nc1cc(N)cc(Cc2ccccc2)c1
[1]
  T/C: 100 % of control
[2]
  T/C: 100 % of control
[3]
  T/C: 109 % of control
[4]
  T/C: 95 % of control

## OCC1OC(OC2(CO)OC(CO)C(O)C2O)C(O)C(O)C1O (stereo not drawn)
dose: 4.0 mg/kg/injection, schedule: Q01DX005 (ip), vehicle: saline
  T/C: 98 % of control
dose: 8.0 mg/kg/injection, schedule: Q01DX005 (ip), vehicle: saline
  T/C: 96 % of control
dose: 32.0 mg/kg/injection, schedule: Q01DX005 (ip), vehicle: saline
  T/C: 96 % of control
dose: 64.0 mg/kg/injection, schedule: Q01DX005 (ip), vehicle: saline
  T/C: 97 % of control
dose: 100.0 mg/kg/injection, schedule: Q01DX009 (ip), vehicle: saline
  T/C: 97 % of control
dose: 128.0 mg/kg/injection, schedule: Q01DX005 (ip), vehicle: saline
  T/C: 99 % of control
dose: 200.0 mg/kg/injection, schedule: Q01DX009 (ip), vehicle: saline
  T/C: 97 % of control
dose: 256.0 mg/kg/injection, schedule: Q01DX005 (ip), vehicle: saline
  T/C: 98 % of control
dose: 400.0 mg/kg/injection, schedule: Q01DX009 (ip), vehicle: saline
  T/C: 98 % of control
dose: 512.0 mg/kg/injection, schedule: Q01DX005 (ip), vehicle: saline
  T/C: 100 % of control
dose: 1024.0 mg/kg/injection, schedule: Q01DX005 (ip), vehicle: saline
  T/C: 106 % of control
dose: 2048.0 mg/kg/injection, schedule: Q01DX005 (ip), vehicle: saline
  T/C: 108 % of control

## CC(NC(=O)OCc1ccccc1)C(=O)Oc1ccccc1[N+](=O)[O-] (stereo not drawn)
[5]
  T/C: 96 % of control
[1]
  T/C: 103 % of control
[6]
  T/C: 105 % of control

## Cc1ccc(C(SCC(N)C(=O)O)(c2ccccc2)c2ccc(C)cc2)cc1 (stereo not drawn)
dose: 50.0 mg/kg/injection, schedule: Q04DX003 (ip), vehicle: saline with Tween-80
  T/C: 186 % of control
[2]
  T/C: 200 % of control
dose: 132.0 mg/kg/injection, schedule: Q04DX003 (ip), vehicle: saline with Tween-80
  T/C: 172 % of control
[3]
  T/C: 177 % of control and 200 % of control
dose: 300.0 mg/kg/injection, schedule: Q04DX003 (ip), vehicle: saline with Tween-80
  T/C: 263 % of control

## O=C1Cn2c(c3c(nc2=O)CCCC3)N1
dose: 60.0 mg/kg/injection, schedule: Q01DX005 (ip), vehicle: saline with Tween-80
  T/C: 100 % of control
dose: 120.0 mg/kg/injection, schedule: Q01DX005 (ip), vehicle: saline with Tween-80
  T/C: 99 % of control
dose: 240.0 mg/kg/injection, schedule: Q01DX005 (ip), vehicle: saline with Tween-80
  T/C: 100 % of control

## CN(C)CCNc1ccc2cc3ccc(N=Nc4ccc(N(C)C)cc4)cc3nc2c1
[2]
  T/C: 100 % of control
[3]
  T/C: 101 % of control
[4]
  T/C: 103 % of control

## NNC(=O)c1ccccc1NC(=O)CSc1nc2ccccc2s1
dose: 50.0 mg/kg/injection, schedule: Q01DX009 (ip), vehicle: Klucel (hydroxypropylcellulose) (HPC)
  T/C: 104 % of control
dose: 100.0 mg/kg/injection, schedule: Q01DX009 (ip), vehicle: Klucel (hydroxypropylcellulose) (HPC)
  T/C: 101 % of control
dose: 200.0 mg/kg/injection, schedule: Q01DX009 (ip), vehicle: Klucel (hydroxypropylcellulose) (HPC)
  T/C: 101 % of control

## CCCCCCCCOCC(=O)OC
[5]
  T/C: 106 % of control
[1]
  T/C: 107 % of control
[6]
  T/C: 101 % of control

## COC(=O)Nn1cc(C(C(C)=O)C(C)=O)c(C(C)=O)c1C
dose: 50.0 mg/kg/injection, schedule: Q01DX005 (ip), vehicle: Klucel (hydroxypropylcellulose) (HPC)
  T/C: 99 % of control
dose: 100.0 mg/kg/injection, schedule: Q01DX005 (ip), vehicle: Klucel (hydroxypropylcellulose) (HPC)
  T/C: 89 % of control

## CCC1(O)C(=O)OCc2c1cc1n(c2=O)Cc2cc3cc4c(cc3nc2-1)OCO4 (stereo not drawn)
dose: 1.0 mg/kg/injection, schedule: Q01DX005 (ip), vehicle: saline with Tween-80
  T/C: 177 % of control
dose: 2.0 mg/kg/injection, schedule: Q01DX005 (ip), vehicle: saline with Tween-80
  T/C: 86 % of control

## O=C(O)/C=C/c1ccc([N+](=O)[O-])cc1
[1]
  T/C: 100 % of control
[6]
  T/C: 105 % of control

## CC(C)CC(NC(=O)C(C)N)C(=O)NC(C)C(=O)NC1C(O)OC(CO)C(O)C1O (stereo not drawn)
dose: 100.0 mg/kg/injection, schedule: Q01DX001 (ip), vehicle: saline with Tween-80
  T/C: 100 % of control
dose: 200.0 mg/kg/injection, schedule: Q01DX001 (ip), vehicle: saline with Tween-80
  T/C: 97 % of control
dose: 400.0 mg/kg/injection, schedule: Q01DX001 (ip), vehicle: saline with Tween-80
  T/C: 91 % of control
